Assay results: US9625444B2, “Artificial immune system: methods of use” (Sanofi Pasteur VaxDesign Corporation, priority 2004, dated 2017)

Assays:
[1] = system: human monocytes; assay: rapid chemokine testing system (lateral motility / chemotaxis of cells); assay type: cell-based
Procedure: The BioAssembly Tool (BAT) has been modified for use in observations of the lateral motility of cells in experiments on chemotaxis. The described setup enables rapid screening of chemokines and cell matrices (typically, one experiment can take about half to one hour).
Three chemokines, fMLP-FITC; […], and MIP-3β, were tested with human monocytes. […] MIP-3β was found ineffective (as expected for immature monocytes); MIP-3α was found effective, despite negative information and expectations. […] Thus, fibrin matrices should be used preferably in cases when cell retention is required, and collagen should be used to make cell-permeable barriers. This latter observation may be important when considering the use of ETCs for wound healing procedures. This system can be used to further refine and optimize chemokine doses using various microparticle strategies and formulations, temporal release characteristics, and scaffold characteristics (e.g., geometry, porosity, material) on cell migration.
The rapid chemokine testing system can be used to examine saturation of cell receptors by chemokines. When a chemokine reaches its saturating concentration, cells become insensitive to the signal and stop their locomotion. In most cases, chemotaxis occurs through gradients of chemokines.

[2] = system: human monocytes and dendritic cells; assay: in vitro chemotaxis towards chemoattractant-releasing PLGA microspheres; assay type: cell-based; conditions: PLGA microspheres releasing the chemoattractant
From the text: FIG. 7A is a schematic representation of the experimental design. […] FIGS. 7C and 7D show the movement of monocyte-derived DCs and monocytes, respectively, towards the vaccination site source well.
PLGA (poly(lactide-co-glycolide)) microspheres provide steady controlled release of encapsulated chemokines. […] Synthetic inverse opal hydrogel scaffolds were synthesized that support T-cell migration and interaction with B cells (FIG. 8A), and support attachment and growth of high cell densities, which is an important feature in mimicking the microenvironment of the lymph node (FIG. 8B).

[3] = system: human monocytes; conditions: known value used for comparison; cited from earlier work
[4] = system: monocytes; assay: monocyte attraction to implanted extracellular matrix scaffold; assay type: in vivo; conditions: mouse

Molecule: N-formyl-methionyl-leucyl-phenylalanine-fluorescein isothiocyanate [fMLP FITC]
- saturation level [1]: ~40 nM

Molecule: CSCC[C@H](NC=O)C(=O)N[C@@H](CC(C)C)C(=O)N[C@@H](Cc1ccccc1)C(=O)O [fMLP, N-formyl-methionyl-leucyl-phenylalanine]
- movement of cells towards releasing microspheres [2]: move towards microspheres
- saturation level known [3]: ~30 nM

Molecule: MIP-3α: chemokine (macrophage inflammatory protein-3) tested with human monocytes
- effectiveness of the chemokine [1]: effective

Molecule: MIP-3β: macrophage inflammatory protein-3β, a 10 kDa chemoattractant chemokine
- attraction of monocytes (immunohistochemical staining) [4]: attracted
- effectiveness of the chemokine [1]: ineffective
